Measurements: ChEMBL document CHEMBL1275512, “Comparative in vitro activities of the investigational fluoroquinolone DC-159a and other antimicrobial agents against human mycoplasmas and ureaplasmas” (2008)
≈ marks a conversion by molar mass, not a printed value. Calls of active or inactive are those of the source. No cut-off for these calls is given here.

What was measured:
[1] = system: Ureaplasma urealyticum; assay: Antimicrobial activity against Ureaplasma urealyticum by broth microdilution method; assay type: functional
[2] = system: Metamycoplasma hominis; assay: Antimicrobial activity against Mycoplasma hominis by broth microdilution method; assay type: functional
[3] = system: Mycoplasma fermentans; assay: Antimicrobial activity against Mycoplasma fermentans by broth microdilution method; assay type: functional; conditions: Mycoplasmopsis fermentans
[4] = system: Mycoplasmoides pneumoniae; assay: Antimicrobial activity against Mycoplasma pneumoniae by broth microdilution method; assay type: functional
[5] = system: Mycoplasma genitalium; assay: Antimicrobial activity against Mycoplasma genitalium by broth microdilution method; assay type: functional; conditions: Mycoplasmoides genitalium
[6] = system: Ureaplasma parvum; assay: Antimicrobial activity against fluoroquinolone-resistant Ureaplasma parvum by broth microdilution method; assay type: functional
[7] = system: Ureaplasma parvum; assay: Antimicrobial activity against Ureaplasma parvum by broth microdilution method; assay type: functional
[8] = system: Mycoplasmoides pneumoniae; assay: Bactericidal activity against Mycoplasma pneumoniae assessed as log reduction in bacterial load at MIC after 24 hrs; assay type: functional
[9] = system: Mycoplasmoides pneumoniae; assay: Bactericidal activity against Mycoplasma pneumoniae assessed as log reduction in bacterial load at MIC after 72 hrs; assay type: functional
[10] = system: Mycoplasmoides pneumoniae; assay: Bactericidal activity against Mycoplasma pneumoniae at MIC after 48 hrs; assay type: functional, organism-based
[11] = system: Mycoplasmoides pneumoniae; assay: Bactericidal activity against Mycoplasma pneumoniae at 8 X MIC after 120 hrs; assay type: functional, organism-based

| SMILES | MIC50 [1] | MIC90 [1] | MIC50 [2] | MIC90 [2] | MIC50 [3] | MIC90 [3] | MIC50 [4] | MIC90 [4] | MIC [5] | MIC [6] | MIC50 [7] | MIC90 [7] | FC [8] | FC [9] | MIC [1] | Activity [10] | MIC [7] | MIC [4] | Activity [11] |
| --- | --- | --- | --- | --- | --- | --- | --- | --- | --- | --- | --- | --- | --- | --- | --- | --- | --- | --- | --- |
| O=C(O)c1cn(C2CC2)c2cc(N3CCNCC3)c(F)cc2c1=O [CIPROFLOXACIN] | 4 mg/L (≈ 12.1 µM) | 8 mg/L (≈ 24.1 µM) | 0.5 mg/L (≈ 1.51 µM) | 1 mg/L (≈ 3.02 µM) | 0.063 mg/L (≈ 0.19 µM) | 0.125 mg/L (≈ 0.377 µM) | 2 mg/L (≈ 6.04 µM) | 4 mg/L (≈ 12.1 µM) | 0.5 mg/L (≈ 1.51 µM) | 32 mg/L (≈ 96.6 µM) | 2 mg/L (≈ 6.04 µM) | 16 mg/L (≈ 48.3 µM) | – | – | – | – | – | – | – |
| C[C@H]1c2cccc(O)c2C(=O)C2=C(O)[C@]3(O)C(=O)C(C(N)=O)=C(O)[C@@H](N(C)C)[C@@H]3[C@@H](O)[C@@H]21.O [DOXYCYCLINE] | 0.125 mg/L | 0.5 mg/L | 2 mg/L | 8 mg/L | 0.25 mg/L | 1 mg/L | 0.25 mg/L | 0.5 mg/L | 0.032 mg/L | – | 0.125 mg/L | 2 mg/L | – | – | – | – | – | – | – |
| COc1c(N2CC3(CC3)[C@](C)(N)C2)c(F)cc2c(=O)c(C(=O)O)cn([C@@H]3C[C@@H]3F)c12 | 0.5 mg/L (≈ 1.19 µM) | 1 mg/L (≈ 2.38 µM) | 0.125 mg/L (≈ 0.298 µM) | 0.25 mg/L (≈ 0.596 µM) | 0.016 mg/L (≈ 0.0381 µM) | 0.032 mg/L (≈ 0.0763 µM) | 0.063 mg/L (≈ 0.15 µM) | 0.063 mg/L (≈ 0.15 µM) | 0.016 mg/L (≈ 0.0381 µM) | 4 mg/L (≈ 9.54 µM) | 0.5 mg/L (≈ 1.19 µM) | 2 mg/L (≈ 4.77 µM) | 3 | 3 | – | – | – | – | – |
| CN(C)[C@@H]1C(O)=C(C(N)=O)C(=O)[C@@]2(O)C(O)=C3C(=O)c4c(O)cccc4[C@@](C)(O)[C@H]3C[C@@H]12 [TETRACYCLINE] | 0.5 mg/L (≈ 1.13 µM) | 2 mg/L (≈ 4.5 µM) | 0.5 mg/L (≈ 1.13 µM) | 16 mg/L (≈ 36 µM) | 0.5 mg/L (≈ 1.13 µM) | 1 mg/L (≈ 2.25 µM) | 0.5 mg/L (≈ 1.13 µM) | 1 mg/L (≈ 2.25 µM) | 0.25 mg/L (≈ 0.563 µM) | – | 0.5 mg/L (≈ 1.13 µM) | 8 mg/L (≈ 18 µM) | – | – | – | – | – | – | – |
| COc1c(N2C[C@@H]3CCCN[C@@H]3C2)c(F)cc2c(=O)c(C(=O)O)cn(C3CC3)c12 [MOXIFLOXACIN] | 0.25 mg/L (≈ 0.623 µM) | 0.5 mg/L (≈ 1.25 µM) | 0.063 mg/L (≈ 0.157 µM) | 0.063 mg/L (≈ 0.157 µM) | 0.032 mg/L (≈ 0.0797 µM) | 0.063 mg/L (≈ 0.157 µM) | 0.125 mg/L (≈ 0.311 µM) | 0.125 mg/L (≈ 0.311 µM) | 0.016 mg/L (≈ 0.0399 µM) | 4 mg/L (≈ 9.96 µM) | 0.5 mg/L (≈ 1.25 µM) | 2 mg/L (≈ 4.98 µM) | – | – | 0.25 mg/L (≈ 0.623 µM) | Active | – | – | – |
| C[C@H]1COc2c(N3CCN(C)CC3)c(F)cc3c(=O)c(C(=O)O)cn1c23.C[C@H]1COc2c(N3CCN(C)CC3)c(F)cc3c(=O)c(C(=O)O)cn1c23.O [LEVOFLOXACIN] | 1 mg/L | 1 mg/L | 0.25 mg/L | 0.5 mg/L | 0.063 mg/L | 0.125 mg/L | 0.5 mg/L | 1 mg/L | 1 mg/L | 16 mg/L | 0.5 mg/L | 2 mg/L | – | – | – | – | 0.5 mg/L | – | – |
| CC[C@H]1OC(=O)[C@H](C)[C@@H](O[C@H]2C[C@@](C)(OC)[C@@H](O)[C@H](C)O2)[C@H](C)[C@@H](O[C@@H]2O[C@H](C)C[C@H](N(C)C)[C@H]2O)[C@](C)(O)C[C@@H](C)CN(C)[C@H](C)[C@@H](O)[C@]1(C)O [AZITHROMYCIN] | 2 mg/L (≈ 2.67 µM) | 4 mg/L (≈ 5.34 µM) | – | – | – | – | ≤ 0.001 mg/L | ≤ 0.001 mg/L | ≤ 0.001 mg/L | – | 1 mg/L (≈ 1.34 µM) | 2 mg/L (≈ 2.67 µM) | – | – | – | – | – | ≤ 0.001 mg/L | – |
| CC[C@H]1OC(=O)[C@H](C)[C@@H](O[C@H]2C[C@@](C)(OC)[C@@H](O)[C@H](C)O2)[C@H](C)[C@@H](O[C@@H]2O[C@H](C)C[C@H](N(C)C)[C@H]2O)[C@](C)(O)C[C@@H](C)C(=O)[C@H](C)[C@@H](O)[C@]1(C)O [ERYTHROMYCIN] | 2 mg/L (≈ 2.73 µM) | 4 mg/L (≈ 5.45 µM) | 0.016 mg/L (≈ 0.0218 µM) | 0.032 mg/L (≈ 0.0436 µM) | 0.032 mg/L (≈ 0.0436 µM) | 0.125 mg/L (≈ 0.17 µM) | 0.004 mg/L (≈ 0.00545 µM) | 0.004 mg/L (≈ 0.00545 µM) | ≤ 0.001 mg/L | – | 1 mg/L (≈ 1.36 µM) | 4 mg/L (≈ 5.45 µM) | – | – | – | – | – | – | Active |
